Here are results for two compounds from US11957649B2, “Methods and pharmaceutical preparations for elevating ketone utilization” (GLYKON TECHNOLOGIES GROUP, LLC, priority 2020, dated 2024).

In assay [1] the target is T1, pancreatic alpha-amylase (Homo sapiens, UniProt P04746).
T1 sequence (P04746 16-511): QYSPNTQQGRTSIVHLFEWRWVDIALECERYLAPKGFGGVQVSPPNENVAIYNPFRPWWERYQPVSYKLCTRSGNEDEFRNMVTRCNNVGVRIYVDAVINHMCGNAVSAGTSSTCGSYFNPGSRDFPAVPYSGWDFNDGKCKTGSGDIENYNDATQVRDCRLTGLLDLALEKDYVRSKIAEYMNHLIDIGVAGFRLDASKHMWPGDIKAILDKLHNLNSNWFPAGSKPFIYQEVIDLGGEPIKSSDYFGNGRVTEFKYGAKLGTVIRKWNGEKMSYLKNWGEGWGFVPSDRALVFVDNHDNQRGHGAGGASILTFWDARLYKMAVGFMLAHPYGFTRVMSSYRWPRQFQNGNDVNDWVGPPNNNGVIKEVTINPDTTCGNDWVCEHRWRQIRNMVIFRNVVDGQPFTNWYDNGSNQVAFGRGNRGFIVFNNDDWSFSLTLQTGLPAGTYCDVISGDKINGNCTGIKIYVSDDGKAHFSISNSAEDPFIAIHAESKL
The following applies: background statement, in vitro; cited from earlier work.

Assay [2] concerns intestinal alpha-glucosidase. The note with it: background statement, in vitro; cited from earlier work.
Assay [3] can be described thus: Blood levels of biomolecules before and 90 minutes after administration. In kind it is in vivo, human. Here is the method:
Subject 5 was a person, weighing approximately 285 pounds and with a normal fasting blood sugar level of 115-120. First, blood was drawn from Subject 5 and levels of various biomolecules were measured. Next, Subject 5 was administered 16.66 ml of the Example 1 formulation on an empty stomach, i.e. wherein with each 16.66 ml the subject received 5,000 mg of the potassium-magnesium (−)-hydroxycitric acid salt, corresponding to 3490 mg of (−)-hydroxycitric acid. 90 minutes after the administration, blood was drawn from Subject 5 and levels of the various biomolecules were remeasured.
Subject 6 was administered 16.66 ml of the Example 1 formulation on an empty stomach, i.e. wherein with each 16.66 ml the subject received 5,000 mg of the potassium-magnesium (−)-hydroxycitric acid salt, corresponding to 3490 mg of (−)-hydroxycitric acid. 90 minutes after the administration, blood was drawn from Subject 6 and levels of the various biomolecules were remeasured.

A short description of assay [4]: fNIRS measurement of blood hemoglobin and oxygen saturation after oral administration. In kind it is in vivo, human. The note with it: overall statement on HCA administration. Here is the method: Subjects 1-4 were orally administered the formulation of Example 1. The Subjects were given either one or two administrations of 8.33 ml of the aqueous formulation of Example 1 on an empty stomach, i.e. wherein with each 8.33 ml the subject received 2,500 mg of the potassium-magnesium (−)-hydroxycitric acid salt, corresponding to 1745 mg of (−)-hydroxycitric acid.
fNIRS testing (functional Near Infrared Spectroscopy) was used to measure blood hemoglobin and oxygen saturation. fNIRS can be used to determine real-time peripheral and cerebral hemodynamic responses. For example, relative changes in HbR (deoxygen saturation), HbO (oxygen saturation), and HbT (total hemoglobin concentration), etc. can be determined via application of Modified Beer Lambert Law. HbR, Hb=deoxygen saturation (shown as the thinnest and bottom dashed line in FIG. 1) HbO, HbO2=oxygen saturation (shown as the medium-thickness and middle line in FIG. 1) HbT=total hemoglobin concentration (shown as the darkest, thickest and top line in FIG. 1). On the graphs, time is in seconds.

In assay [5] the target is T2, ATP citrate lyase (Homo sapiens, UniProt P53396).
T2 sequence (P53396 1-1101): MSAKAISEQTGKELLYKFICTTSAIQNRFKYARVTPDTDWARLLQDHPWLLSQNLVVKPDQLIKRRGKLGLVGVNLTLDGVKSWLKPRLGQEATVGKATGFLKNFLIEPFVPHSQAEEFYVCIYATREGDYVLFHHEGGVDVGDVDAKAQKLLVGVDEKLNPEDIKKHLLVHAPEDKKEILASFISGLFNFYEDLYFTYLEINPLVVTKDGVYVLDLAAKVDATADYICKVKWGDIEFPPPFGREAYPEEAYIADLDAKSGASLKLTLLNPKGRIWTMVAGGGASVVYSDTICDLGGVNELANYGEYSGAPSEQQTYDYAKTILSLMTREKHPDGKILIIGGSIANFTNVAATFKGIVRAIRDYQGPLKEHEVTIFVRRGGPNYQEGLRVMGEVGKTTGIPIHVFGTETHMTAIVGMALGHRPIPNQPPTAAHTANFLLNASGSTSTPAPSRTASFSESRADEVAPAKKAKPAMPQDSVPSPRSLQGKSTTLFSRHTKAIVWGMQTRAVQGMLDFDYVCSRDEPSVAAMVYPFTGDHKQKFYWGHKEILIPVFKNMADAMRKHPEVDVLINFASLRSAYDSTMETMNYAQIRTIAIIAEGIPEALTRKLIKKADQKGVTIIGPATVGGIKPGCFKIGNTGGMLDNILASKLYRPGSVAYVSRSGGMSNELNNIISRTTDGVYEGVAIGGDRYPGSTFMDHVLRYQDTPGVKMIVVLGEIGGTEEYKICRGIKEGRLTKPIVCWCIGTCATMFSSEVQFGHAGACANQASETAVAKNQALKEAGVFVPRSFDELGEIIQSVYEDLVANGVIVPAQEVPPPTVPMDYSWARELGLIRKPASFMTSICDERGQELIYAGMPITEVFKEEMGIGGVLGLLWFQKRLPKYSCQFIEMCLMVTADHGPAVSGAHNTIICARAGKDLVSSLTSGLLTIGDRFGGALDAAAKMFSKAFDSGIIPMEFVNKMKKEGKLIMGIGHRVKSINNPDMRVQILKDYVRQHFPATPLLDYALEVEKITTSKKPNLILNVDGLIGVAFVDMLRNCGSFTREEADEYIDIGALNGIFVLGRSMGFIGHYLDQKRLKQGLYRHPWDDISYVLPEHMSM
The note with it: background statement; cited from earlier work.

Setting [6] is: overall conclusion on HCA administration.

SMILES strings stand for the structures.

As to `O=C(O)C[C@](O)(C(=O)O)[C@H](O)C(=O)O` [(2S,3R)-HCA], the “inhibition of pancreatic alpha-amylase” value in assay [1] was “inhibits”. For the same compound, the “inhibition of intestinal alpha-glucosidase” value in assay [2] is listed as “inhibits”.

Regarding `O=C(O)CC(O)(C(=O)O)C(O)C(=O)O` (stereo not shown) [HCA, 1,2-dihydroxypropane-1,2,3-tricarboxylic acid], the “Ketones Result” value in assay [3] (Subject 5, 16.66 ml on empty stomach, 90 mins after administration, before (fasting) 0.6) stood at 0.5. Further, in assay [3] (setting [6]), the cortisol entry is on record as “decreased”, the levels of ketones entry was “relatively stable or slightly lower levels” and the triglycerides result is recorded as “decreased”. Moreover, the glucose entry in assay [3] (overall conclusion on HCA administration, in some cases transient) is recorded as “increased”. In assay [4], the blood hemoglobin entry is given as “increased” and the oxygen saturation result is reported as “increased”. The “inhibition of ATP citrate lyase” value in assay [5] is recorded as “competitive inhibitor”.
